Key:
[1] = system: Chronic constriction injury (CCI) in mice; conditions: p.o., twice per day for three weeks, cited from earlier work
[2] = system: pain; assay: 7 volunteer pain relief study; format: in vivo, human; conditions: for Relief: single agent: Curcumin 30 mg or Hemp CBD 20 mg, formulations contain magnesium
Description: All of the above formulations contain magnesium. Patients received the combination of CBD and curcumin in the following formulation comprising: (a) hemp derived terpiniods and oil; (b) turmeric as curcumin and; (c) magnesium.

[3] = chronic, but not acute, treatment 5, 15 or 45 mg/kg

## COc1cc(/C=C/C(=O)CC(=O)/C=C/c2ccc(O)c(OC)c2)ccc1O [Curcumin, curcumin]
[1]; chronic treatment 5, 15 or 45 mg/kg
  spinal monoamine (or metabolite) contents: increasing
[1]; [3]
  mechanical allodynia (von Frey hair): alleviated
  thermal hyperalgesia (hot plate test): alleviated
[2]; Subject 1, (California), joint pain
  Relief: Partial relief
[2]; Subject 2, (California), migraine
  Relief: Partial relief
[2]; Subject 4, (Colorado), back pain
  Relief: Partial relief
[2]; Subject 5, (California), back pain
  Relief: Partial relief
[2]; summary of the 7 volunteer study, patients taking the agents singly
  pain relief: partial pain relief
